According to patent publication US20220408731A1, “MODIFIED ANTIMICROBIAL PEPTIDES” (priority 2021, published 2022):
Values after ≈ are worked out from the molar mass of the structure shown. Bridge positions count the residues as written; N and C are the ends. Peptide text beside a SMILES is read from it.

Experiments:
[1] = test system: Colletotrichum gloeosporioides; conditions: unit from method, none in Table 19
[2] = test system: Botrytis cinerea
[3] = test system: Cercospora sojina; conditions: unit from method, none in Table 19
[4] = test system: Alternaria alternata; conditions: unit from method, none in Table 19
[5] = test system: B. cinerea; assay: Drop inoculation assay on detached Nicotiana benthamiana leaves (semi-in planta); format: in vivo, Botrytis cinerea; conditions: 48 h
[6] = test system: Fusarium graminearum

Row | Structure (SMILES) | MIC, Colletotrichum gloeosporioides [1] [µM] | MIC (μM) (SFM + 2 mM CaCl2) [2] [µM] | MIC (μM) (SFM + 100 mM KCl) [2] [µM] | MIC (μM) (SFM + 100 mM NaCl) [2] [µM] | MIC (μM) SFM [2] [µM] | MIC, Cercospora sojina [3] [µM] | MIC, Alternaria alternata [4] [µM] | Reduction of gray mold disease symptoms ([5]; detached N. benthamiana leaves, no single concentration stated) | Gray mold symptoms, drop inoculation assay ([5]; peptide at 1.5 μM and 3 μM) | Gray mold symptoms, drop inoculation assay ([5]; peptide at 6 μM) | MIC (μM) Botrytis cinerea [2] [µM] | MIC (μM) Fusarium graminearum [6] [µM]
1 | C[C@H](NC(=O)CN)C(=O)N[C@H]1CSSC[C@@H](C(N)=O)NC(=O)[C@H](CCCCN)NC(=O)[C@H](CCCCN)NC(=O)[C@H](Cc2ccc(O)cc2)NC(=O)[C@H](Cc2c[nH]c3ccccc23)NC(=O)[C@H](Cc2ccccc2)NC(=O)[C@H](Cc2c[nH]c3ccccc23)NC(=O)[C@H](C)NC(=O)[C@H](Cc2ccccc2)NC(=O)CNC(=O)[C@H](Cc2ccccc2)NC(=O)CNC(=O)[C@H](CCC(N)=O)NC(=O)[C@H](CCCNC(=N)N)NC(=O)[C@H](Cc2c[nH]cn2)NC1=O [GMA5CA_V3] (H-GACHRQGFGFAWFWYKKC-NH2; disulfide 3-18; N-terminus assumed) | >12 | >12 | >12 | >12 | 3 (≈ 6.57 µg/mL) | 6 (≈ 13.1 µg/mL) | 3 (≈ 6.57 µg/mL) |  |  |  |  | 
2 | CC[C@H](C)[C@@H]1NC(=O)[C@H](CCCNC(=N)N)NC(=O)[C@H]([C@@H](C)O)NC(=O)[C@H](Cc2c[nH]c3ccccc23)NC(=O)[C@H](Cc2ccc(O)cc2)NC(=O)[C@H](Cc2c[nH]c3ccccc23)NC(=O)[C@H](CCCNC(=N)N)NC(=O)[C@H](CCCNC(=N)N)NC(=O)[C@H](CCCNC(=N)N)NC(=O)[C@H](Cc2ccccc2)NC(=O)CNC(=O)[C@H](CCCCN)NC(=O)[C@@H](NC(=O)[C@H](CCCNC(=N)N)NC(=O)CNC(=O)CN)CSSC[C@@H](C(N)=O)NC1=O [GMA4C_V10] (H-GGRCKGFRRRWYWTRIC-NH2; disulfide 4-17; N-terminus assumed) | >12 | 3 | 3 to 6 | 3 | 3 (≈ 6.6 µg/mL) | 6 (≈ 13.2 µg/mL) | >12 | effective in reducing gray mold disease symptoms | more effective in reducing the symptoms of gray mold than GMA4C_V9 | completely abrogates gray mold symptoms |  | 
3 | C[C@H](NC(=O)CN)C(=O)N[C@H]1CSSC[C@@H](C(N)=O)NC(=O)[C@H](CCCCN)NC(=O)[C@H](CCCCN)NC(=O)[C@H](Cc2ccc(O)cc2)NC(=O)[C@H](Cc2ccccc2)NC(=O)[C@H](Cc2ccccc2)NC(=O)[C@H](Cc2ccccc2)NC(=O)[C@H](C)NC(=O)[C@H](Cc2ccccc2)NC(=O)CNC(=O)[C@H](Cc2ccccc2)NC(=O)CNC(=O)[C@H](CCC(N)=O)NC(=O)[C@H](CCCNC(=N)N)NC(=O)[C@H](Cc2c[nH]cn2)NC1=O [GMA5CA_V4] (H-GACHRQGFGFAFFFYKKC-NH2; disulfide 3-18; N-terminus assumed) | >12 | >12 | >12 | >12 | 3 (≈ 6.33 µg/mL) | 6 (≈ 12.7 µg/mL) | 3 (≈ 6.33 µg/mL) |  |  |  |  | 
4 | C[C@@H](O)[C@H](NC(=O)[C@H](CS)NC(=O)[C@H](Cc1ccccc1)NC(=O)[C@H](CS)NC(=O)[C@H](CCCNC(=N)N)NC(=O)[C@H](CCCNC(=N)N)NC(=O)[C@H](CCCNC(=N)N)NC(=O)[C@H](Cc1ccccc1)NC(=O)CNC(=O)[C@H](CCCNC(=N)N)NC(=O)[C@H](CS)NC(=O)[C@H](CCCNC(=N)N)NC(=O)CN)C(=O)N[C@H](C(=O)N[C@@H](Cc1c[nH]cn1)C(=O)N[C@@H](CS)C(=O)O)[C@@H](C)O [GMA4AC, reference compound] (H-GRCRGFRRRCFCTTHC-OH; N-terminus assumed) |  |  |  |  |  |  |  |  |  |  | 6 (≈ 11.8 µg/mL) | 6 (≈ 11.8 µg/mL)
